This note sets out measurements from PubChem BioAssay AID624344 (Sanford-Burnham Center for Chemical Genomics, 2012).

Structures are written as SMILES. Calls of active or inactive are those of the source. The rule behind the calls is not given here.

Experiment [1] can be described thus: inhibitors of PAF-induced NFkB signaling in CF airway cells, dose response, cell-based, uHTS hits, panel, cytotoxicity readout (AID 624344). To be noted: CF bronchial epithelial cells, PAF-induced NFkB reporter inhibition; with PAF, mean of runs.
The next experiment has as its system Cytotoxicity. The experiment is described as above. The note with it: CF bronchial epithelial cells, mean of runs.

Usually IC50 stands for the midpoint of a concentration-inhibition curve. Turning to `COc1cc(-c2cnc3c(NC=O)cc(-c4ccc(C)cc4)cn23)cc(OC)c1OC`, the IC50 in experiment [1] was > 79 µM (inactive); in the experiment on Cytotoxicity, 22 µM.
The corresponding values for `CC1CCCCN1c1ncnc(N)c1[N+](=O)[O-]` (stereo not drawn) are 3.66 µM and > 79 µM (inactive).
The like results for `CC(=O)OCCN1c2ccccc2Sc2cnccc21` were, in that order, 4.33 µM and 63.5 µM (inactive).
On to `O=C1C(=Cc2ccccc2[N+](=O)[O-])Cc2ccccc21`, for which the results for the IC50 (in experiment [1]; in the experiment with Cytotoxicity) were 6.36 µM and 8.65 µM, respectively.
The like results for `CC(=O)c1ccc(-c2cnc3c(NC=O)cc(-c4ccc(C(=O)NC5CC5)cc4)cn23)cc1` were, in that order, 4.25 µM and 27.4 µM.
The like results for `O=C(Nc1ccc(Br)c2ccccc12)c1ccc2ccccc2c1O` were, in that order, 1.93 µM and 2.38 µM.
Regarding `OCCNc1nc(Nc2ccc(Cl)c(Cl)c2)nc2ccccc12`, the results for the IC50 (in experiment [1]; with Cytotoxicity) were 2.16 µM and 4.07 µM, respectively.
The corresponding values for `Cc1ccc(S(=O)(=O)n2cc(-c3ccccc3)c3ccccc32)cc1` are 5.53 µM and > 79 µM (inactive).
The like results for `CCOc1ccc(CCN2C(=S)N([C@@H](CC(C)C)CN3CCCC3CN3C(=S)NC[C@@H]3CC(C)C)C[C@@H]2Cc2ccc(O)cc2)cc1` (stereo partly drawn) were, in that order, 14.9 µM and 64.1 µM (inactive).
Turning to `Cc1ccnc(NC(=O)CSc2cc(=O)n(C)c3ccccc23)c1`, the IC50 in experiment [1] is 7.95 µM; in the experiment with Cytotoxicity, 39.4 µM.
The like results for `COc1cccc(-c2ccc3ncnc(NCc4cccnc4)c3c2)c1` were, in that order, 1.23 µM and 11.3 µM.
Take `CC(=O)Oc1c(Cl)cc(N(C(C)=O)S(=O)(=O)c2ccccc2)c2ccccc12`: the IC50 was 7.68 µM in experiment [1] and 8.93 µM with Cytotoxicity.
Regarding `O=C1NC(=S)N/C1=C/c1cccnc1`, the IC50 in experiment [1] is 5.96 µM; in the experiment on Cytotoxicity it was 41.8 µM.
The corresponding values for `CC(C)n1c(SCc2ccccc2F)nc2c1c(=O)n(C)c(=O)n2C` are 7.01 µM and > 79 µM (inactive).
The corresponding values for `O=[N+]([O-])c1cccc(NC(=S)Nc2nc(-c3ccccc3Cl)cs2)c1` are 6.59 µM and 10.1 µM.
In the case of `C=C1C(=O)O[C@H]2C[C@H]1[C@@H](OC(C)=O)C/C(C)=C/CC/C(C)=C\CC[C@]2(C)O`, the figures for the IC50 (in experiment [1]; with Cytotoxicity) were 2 µM and 2.39 µM, respectively.
With `Clc1ccc(-c2csc3ncnc(N4CCc5ccccc5C4)c23)cc1`, the IC50 was 3.99 µM in experiment [1] and 19.2 µM with Cytotoxicity.
In the case of `COc1cccc(-c2ccc3ncnc(NCc4cccs4)c3c2)c1`, the IC50 is 2.91 µM in experiment [1] and 13.6 µM in the experiment on Cytotoxicity.
`C=C1C(=O)O[C@@]23[C@H]1CC[C@@H](C)[C@@H]2CC[C@@]1(C)O[C@@H]31`: the results for the concentration for half-maximal inhibition (IC50) (in experiment [1]; with Cytotoxicity) were 3.76 µM and 44.9 µM, respectively.
The like results for `C=C1C(C)C2C(Cc3ccccc3)NC(=O)C23OC(=O)/C=C/C(O)CCCC(C)C/C=C/C3C1O` (stereo not drawn) were, in that order, 1.25 µM and 2.32 µM.
The like results for `Cc1ccccc1C(=O)N1CCN(c2ccc(NC(=O)c3cccc(OC(C)C)c3)cc2)CC1` were, in that order, 6.7 µM and > 79 µM (inactive).
The corresponding values for `COc1ccc(OC)c(-c2nnc3n2N=C(c2ccc(OC)c(OC4CCOC4)c2)CS3)c1` (stereo not drawn) are 1.71 µM and > 79 µM (inactive).
Regarding `O=C(/C=C/c1cccc([N+](=O)[O-])c1)NC(=S)Nc1ccc(CN2CCOCC2)cc1`, the results for the IC50 (in experiment [1]; in the experiment on Cytotoxicity) were 5.19 µM and 19.8 µM, respectively.
`COc1ccc(-c2oc3ccc(-c4ccc5c(c4)OCO5)cc3c2C#CC2(O)CCCCC2)cc1`: the IC50 was 2.67 µM in experiment [1] and 41.3 µM in the experiment on Cytotoxicity.
The like results for `Cc1nc(N)c(C#N)c(-c2cccnc2)c1-c1ccccc1` were, in that order, 4.45 µM and 62.9 µM (inactive).
In the case of `O=C(Nc1nnc(S(=O)(=O)N2CCCCCC2)s1)c1cccc(Br)c1`, the IC50 in experiment [1] is 2.68 µM; with Cytotoxicity, 7.27 µM.
The like results for `c1cc2[nH]snc2c2nc(C3CC3)nc12` were, in that order, 3.06 µM and 13.3 µM.
The like results for `O=C(CCl)N(Cc1cc(=O)[nH]c2ccccc12)c1ccccc1` were, in that order, 1.48 µM and 2.98 µM.
The like results for `O=C1NCCc2c1[nH]c1c(Cl)ccc(Cl)c21` were, in that order, 1.54 µM and 11 µM.
On to `COc1ccc2[nH]c(=O)c(CN(Cc3cccnc3)S(=O)(=O)c3ccccc3F)cc2c1`, for which the IC50 is 2.1 µM in experiment [1] and 3.68 µM in the experiment with Cytotoxicity.
In the case of `CNc1ccc2ncc(-c3cccc(C(=O)N(C)C)c3)n2n1`, the IC50 in experiment [1] is 0.169 µM; in the experiment with Cytotoxicity, 53.7 µM (inactive).
For `O=C1CC(=O)OC(c2ccc([N+](=O)[O-])cc2)O1`, the IC50 was 2.59 µM in experiment [1] and 1.79 µM in the experiment with Cytotoxicity.
As to `Cc1ccnc(NC(=O)Cc2ccc(-c3ccccc3)cc2)c1`, the IC50 in experiment [1] is 9.06 µM; with Cytotoxicity, 47.8 µM.
The corresponding values for `Cc1cccc(C(=O)N2[C@@H](C(C)C)COc3cc(Br)ccc3S2(=O)=O)c1` are 11.1 µM and 37.8 µM.
